According to ChEMBL document CHEMBL1201862, “PubChem BioAssay data set” (2004):
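The compound was tested at five concentrations on cells cultured in 96-well plates, with a 48-hour exposure period. Abbreviation: GI50, concentration required for 50% inhibition of growth.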 Calls of active or inactive are those of the source. Rule as the data show it: active = GI50 up to about 1.1 µM and inactive = higher.

What was measured:
Test in all cases: DTP human tumour cell line panel, 48 h
786-0 = tested on: 786-0
A549 = tested on: A549
ACHN = tested on: ACHN
CAKI-1 = tested on: CAKI-1
CCRF-CEM = tested on: CCRF-CEM
COLO 205 = tested on: COLO 205
DLD-1 = tested on: DLD-1
DMS-114 = tested on: DMS-114
DMS-273 = tested on: DMS-273
EKVX = tested on: EKVX
HCC 2998 = tested on: HCC 2998
HCT-116 = tested on: HCT-116
HL-60 = tested on: HL-60
HOP-18 = tested on: HOP-18
HOP-62 = tested on: HOP-62
HT-29 = tested on: HT-29
IGROV-1 = tested on: IGROV-1
K562 = tested on: K562
KM-20L2 = tested on: KM-20L2
KM12 = tested on: KM12
LOX IMVI = tested on: LOX IMVI
LXFL 529 = tested on: LXFL 529
M14 = tested on: M14
M19-MEL = tested on: M19-MEL
MOLT-4 = tested on: MOLT-4
Malme-3M = tested on: Malme-3M
NCI-H226 = tested on: NCI-H226
NCI-H23 = tested on: NCI-H23
NCI-H460 = tested on: NCI-H460
NCI-H522 = tested on: NCI-H522
OVCAR-3 = tested on: OVCAR-3
OVCAR-4 = tested on: OVCAR-4
OVCAR-5 = tested on: OVCAR-5
OVCAR-8 = tested on: OVCAR-8
RPMI-8226 = tested on: RPMI-8226
RXF 393 = tested on: RXF 393
SF-268 = tested on: SF-268
SF-295 = tested on: SF-295
SF-539 = tested on: SF-539
SK-MEL-28 = tested on: SK-MEL-28
SK-MEL-2 = tested on: SK-MEL-2
SK-OV-3 = tested on: SK-OV-3
SN12C = tested on: SN12C
SNB-19 = tested on: SNB-19
SNB-75 = tested on: SNB-75
SNB-78 = tested on: SNB-78
SW-620 = tested on: SW-620
TK-10 = tested on: TK-10
U-251 = tested on: U-251
UACC-257 = tested on: UACC-257
UACC-62 = tested on: UACC-62
UO-31 = tested on: UO-31
XF498 = tested on: XF498
A498 = tested on: A498
HCT-15 = tested on: HCT-15
HOP-92 = tested on: HOP-92
SK-MEL-5 = tested on: SK-MEL-5
SR = tested on: SR

Compound: CCCCCCCCCC(=O)CC(=O)c1c(O)cccc1O
- GI50 (786-0): 18.7 µM (inactive)
- GI50 (A549): 28.8 µM (inactive)
- GI50 (ACHN): 27.4 µM (inactive)
- GI50 (CAKI-1): 33.2 µM (inactive)
- GI50 (CCRF-CEM): 27.4 µM (inactive)
- GI50 (COLO 205): 18.7 µM (inactive)
- GI50 (DLD-1): 39.5 µM (inactive)
- GI50 (DMS-114): 30.1 µM (inactive)
- GI50 (DMS-273): 20.8 µM (inactive)
- GI50 (EKVX): 29.2 µM (inactive)
- GI50 (HCC 2998): 44.6 µM (inactive)
- GI50 (HCT-116): 33.4 µM (inactive)
- GI50 (HL-60): 21.4 µM (inactive)
- GI50 (HOP-18): 25.4 µM (inactive)
- GI50 (HOP-62): 85.7 µM (inactive)
- GI50 (HT-29): 27.3 µM (inactive)
- GI50 (IGROV-1): 32.3 µM (inactive)
- GI50 (K562): 27.7 µM (inactive)
- GI50 (KM-20L2): 33.8 µM (inactive)
- GI50 (KM12): 35.1 µM (inactive)
- GI50 (LOX IMVI): 21.3 µM (inactive)
- GI50 (LXFL 529): 38.8 µM (inactive)
- GI50 (M14): 22 µM (inactive)
- GI50 (M19-MEL): 38.5 µM (inactive)
- GI50 (MOLT-4): 31 µM (inactive)
- GI50 (Malme-3M): 35.2 µM (inactive)
- GI50 (NCI-H226): 25.9 µM (inactive)
- GI50 (NCI-H23): 30.5 µM (inactive)
- GI50 (NCI-H460): 34.5 µM (inactive)
- GI50 (NCI-H522): 27.8 µM (inactive)
- GI50 (OVCAR-3): 29.2 µM (inactive)
- GI50 (OVCAR-4): 49.7 µM (inactive)
- GI50 (OVCAR-5): 22.9 µM (inactive)
- GI50 (OVCAR-8): 38 µM (inactive)
- GI50 (RPMI-8226): 25.6 µM (inactive)
- GI50 (RXF 393): 27 µM (inactive)
- GI50 (SF-268): 33.8 µM (inactive)
- GI50 (SF-295): 34.1 µM (inactive)
- GI50 (SF-539): 45.4 µM (inactive)
- GI50 (SK-MEL-28): 62.7 µM (inactive)
- GI50 (SK-MEL-2): 30.6 µM (inactive)
- GI50 (SK-OV-3): 20.5 µM (inactive)
- GI50 (SN12C): 24.4 µM (inactive)
- GI50 (SNB-19): 53.1 µM (inactive)
- GI50 (SNB-75): 28 µM (inactive)
- GI50 (SNB-78): 40 µM (inactive)
- GI50 (SW-620): 28.8 µM (inactive)
- GI50 (TK-10): 41.8 µM (inactive)
- GI50 (U-251): 24.9 µM (inactive)
- GI50 (UACC-257): 38.2 µM (inactive)
- GI50 (UACC-62): 33.4 µM (inactive)
- GI50 (UO-31): 35.1 µM (inactive)
- GI50 (XF498): 15.3 µM (inactive)

Compound: CCOC(=O)C1=C(O)C(=O)c2ccccc2C1=O
- GI50 (786-0): > 100 µM (inactive)
- GI50 (A498): > 100 µM (inactive)
- GI50 (A549): > 100 µM (inactive)
- GI50 (ACHN): > 100 µM (inactive)
- GI50 (CAKI-1): > 100 µM (inactive)
- GI50 (CCRF-CEM): > 100 µM (inactive)
- GI50 (COLO 205): > 100 µM (inactive)
- GI50 (DLD-1): > 100 µM (inactive)
- GI50 (DMS-114): > 100 µM (inactive)
- GI50 (DMS-273): > 100 µM (inactive)
- GI50 (EKVX): > 100 µM (inactive)
- GI50 (HCC 2998): > 100 µM (inactive)
- GI50 (HCT-116): > 100 µM (inactive)
- GI50 (HCT-15): > 100 µM
- GI50 (HL-60): > 100 µM (inactive)
- GI50 (HOP-18): > 100 µM (inactive)
- GI50 (HOP-62): > 100 µM (inactive)
- GI50 (HOP-92): > 100 µM (inactive)
- GI50 (HT-29): > 100 µM (inactive)
- GI50 (IGROV-1): > 100 µM (inactive)
- GI50 (K562): > 100 µM (inactive)
- GI50 (KM12): > 100 µM (inactive)
- GI50 (LOX IMVI): 85.1 µM (inactive)
- GI50 (M14): > 100 µM (inactive)
- GI50 (M19-MEL): 22.2 µM (inactive)
- GI50 (MOLT-4): > 100 µM (inactive)
- GI50 (Malme-3M): 50.6 µM (inactive)
- GI50 (NCI-H226): 48.3 µM (inactive)
- GI50 (NCI-H23): 44.3 µM (inactive)
- GI50 (NCI-H460): > 100 µM (inactive)
- GI50 (NCI-H522): > 100 µM (inactive)
- GI50 (OVCAR-3): > 100 µM (inactive)
- GI50 (OVCAR-4): > 100 µM (inactive)
- GI50 (OVCAR-5): > 100 µM (inactive)
- GI50 (OVCAR-8): > 100 µM (inactive)
- GI50 (RPMI-8226): > 100 µM (inactive)
- GI50 (RXF 393): > 100 µM (inactive)
- GI50 (SF-268): > 100 µM (inactive)
- GI50 (SF-295): 96.6 µM (inactive)
- GI50 (SF-539): > 100 µM (inactive)
- GI50 (SK-MEL-28): > 100 µM (inactive)
- GI50 (SK-MEL-2): > 100 µM (inactive)
- GI50 (SK-MEL-5): 46.5 µM (inactive)
- GI50 (SK-OV-3): > 100 µM (inactive)
- GI50 (SN12C): > 100 µM (inactive)
- GI50 (SNB-19): 40.9 µM (inactive)
- GI50 (SNB-75): > 100 µM (inactive)
- GI50 (SNB-78): > 100 µM (inactive)
- GI50 (SR): > 100 µM (inactive)
- GI50 (SW-620): > 100 µM (inactive)
- GI50 (TK-10): > 100 µM (inactive)
- GI50 (U-251): > 100 µM (inactive)
- GI50 (UACC-257): > 100 µM (inactive)
- GI50 (UACC-62): 48 µM (inactive)
- GI50 (UO-31): > 100 µM (inactive)
- GI50 (XF498): > 100 µM (inactive)
